Assay results: US7811577B2 (priority 2004, dated 2010)
“Also recorded” adds a separate entry of the source. Like-named read-outs stand apart in the source and are kept apart here. Numbered stars: 1 amine (or outer) side, 2 acyl side, 3 side chain; on linkers, the order of the positions; unused ones are H or OH. Bridge positions count the residues as written; N and C are the ends. Square brackets hold non-standard residues; d marks the D form. Ends that are not written are not given here. I, II: the chains in the order shown. * marks the point of attachment. Biotin = O=C1N[C@H]2[C@H](CS[C@H]2CCCCC(=O)*)N1; Ttds = O=C(CCC(=O)[*:2])NCCCOCCOCCOCCCN[*:1]; Acm = CC(=O)NC*

Key:
[1] = test system: D5 IgG binding to biotinylated 5-Helix; assay: Biotinylated 5-Helix/D5 IgG interaction (competition) assay, AlphaScreen
Excerpt: The instrument records these emissions.
(§1) This test determines whether the covalently-stabilized, homotrimeric or heterotrimeric CC-chimeric N-peptides can preserve the structure of the internal, N-helix coiled-coil of gp41.

[2] = test system: D5 IgG binding to biotinylated-IZN17; assay: Biotinylated-IZN17/D5 IgG interaction assay, AlphaScreen
Excerpt: The instrument records these emissions.
as §1

HIV-1 HXB2 = conditions: for anti-viral activity against HIV-1 HXB2, in words: single-cycle/single cell infectivity assay
[3] = test system: D5-IgG binding to biotinylated IQN17; assay: Competition of D5-IgG binding to biotinylated IQN17, AlphaScreen
[4] = Thermal denaturation (CD) in 2M guanidinium chloride; conditions: for melting temperature / midpoint of thermal denaturation: in the presence of 2M guanidinium chloride
Method: The stability of SZN17 was compared with that of IZN17 using thermal denaturation analysis performed in the presence of 2M guanidine hydrochloride (GdnHCl).

[5] = Circular dichroism spectroscopy and thermal denaturation without denaturant; type: physicochemical; conditions: for melting point (thermal denaturation): no denaturant
Method: The IZ-like scaffold in CCI10N17 (SEQ ID NO:20) comprises only the ten COOH-terminal residues of the “IZ” scaffold, with addition of the covalent trimerizing unit (CCGG (SEQ ID NO:28)) at the NH2-terminus of the peptide. The non-covalently-stabilized CCI10N17 coiled-coil (i.e., the coiled-coil formed under non-oxidizing conditions) was dissolved at neutral pH, and its secondary structure content was determined by circular dichroism spectroscopy (CD).
In order to understand the role of the covalent trimerizing unit (CCGG; SEQ ID NO:28), the CCI10N17 peptide was dissolved to permit air oxidation under the same conditions as previously shown for CCIZN17, to generate covalently-stabilized coiled-coil molecules, (CCI10N17)3. […] The trimer (CCI10N17)3 was analyzed by CD and denaturation studies for analysis of both its secondary structure content and stability. The helical content of this molecule was only 85% with a melting curve showing a low cooperatively profile and a low melting point of about 60° C.

[6] = test system: D5 IgG / biotinylated-IZN17; assay: IC50 (nM)
Excerpt: Table printed on a drawing sheet, FIG. 6
Head of the field: IC50 (nM)
Wildtype IZN17 peptide was included as a positive control, previously shown to inhibit D5 binding in this assay.
First copying reader's note: The table stands beside a dose-response plot (Average Alpha Counts vs [Peptide]), which is not copied.

HIV-1 89.6 = type: cell-based
[7] = non-covalently-stabilized coiled-coil, neutral pH, 15 μM

With “CCGGIEKKIEEIEKKIEEIEKKIEEIEKLLQLTVWGIKQLQARIL [CCEZN17]” the “D5 IgG binding in bio-5-Helix/D5 IgG interaction assay, in words” value [1] was “interact with D5 IgG”, the “D5 IgG binding in bio-IZN17/D5 IgG interaction assay, in words” value [2] was “interact with D5 IgG” and the “anti-viral activity against HIV-1 HXB2, in words” value (HIV-1 HXB2) was “lack of anti-viral activity”.

For “IKKEIEAIKKEQEAIKKKIEAIEKLLQLTVWGIaQLQARIL (Ac-IKKEIEAIKKEQEAIKKKIEAIEKLLQLTVWGIAQLQARIL-NH2) [IZN17A10]”, the “competition of D5-IgG binding to biotinylated IQN17, in words” value (shortened to “competition of D5-IgG binding”) [3] was “completely abolish binding of D5” and the “Tm (2M GdnHCl), midpoint of thermal denaturation” value (shortened to “Tm (2M GdnHCl), midpoint”) [4] was 68.1 °C.

With “IKKEIEAIKKEQEAIKKKIEAIEKLLQLTVWGIKQLQARIa (Ac-IKKEIEAIKKEQEAIKKKIEAIEKLLQLTVWGIKQLQARIA-NH2; not fully specified (residue 41)) [IZN17A17]” the “Tm (2M GdnHCl), midpoint” value [4] was 60.6 °C.

For “CCGGIKKKIEAIEKLLQLTVWGIKQLQARIL [CCI10N17, shortened IZ scaffold]”, the “anti-viral activity against HIV-1 HXB2, in words” value (HIV-1 HXB2) was “less potent anti-virals” and the “helical content by circular dichroism” value [5, 7] was 61%.

In the case of “IKKEIEAIKKEQEAIKKKIEAIEKLLQLTVaGIKQLQARIL (Ac-IKKEIEAIKKEQEAIKKKIEAIEKLLQLTVAGIKQLQARIL-NH2) [IZN17A7]”, the “competition of D5-IgG binding” value [3] is reported as “completely abolish binding of D5” and the “Tm (2M GdnHCl), midpoint” value [4] is reported as 61.4 °C.

In the case of “IKKEIEAIKKEQEAIKKKIEAIEKLLQaTVWGIKQLQARIL (Ac-IKKEIEAIKKEQEAIKKKIEAIEKLLQATVWGIKQLQARIL-NH2) [IZN17A4]”, the “competition of D5-IgG binding” value [3] is reported as “completely abolish binding of D5” and the “Tm (2M GdnHCl), midpoint” value [4] is reported as 58.2 °C.

“IEKKIEEIEKKIEEIEKKIEEIEKLLQLTVWGIKQLQARIL [EZN17, EZ scaffold fused to N17] [listing 1 of 2 here]” gave an IC50 [6] of 18.3 nM.

In the case of “IKKKIEAIEKLLQLTVWGIKQLQARILGGCC [I10N17CC]”, the “anti-viral activity against HIV-1 HXB2, in words” value (HIV-1 HXB2) is reported as “less potent anti-virals”.

With “IKKEIEAIKKEQEAIKKKIEAIEKLLQLTaWGIKQLQARIL (Ac-IKKEIEAIKKEQEAIKKKIEAIEKLLQLTAWGIKQLQARIL-NH2) [IZN17A6]” the “Tm (2M GdnHCl), midpoint” value [4] was 56.4 °C.

For “IKKEIEAIKKEQEAIKKKIEAIEKLLaLTVWGIKQLQARIL (Ac-IKKEIEAIKKEQEAIKKKIEAIEKLLALTVWGIKQLQARIL-NH2) [IZN17A3]”, the “Tm (2M GdnHCl), midpoint” value [4] was 64.7 °C.

In the case of enfuvirtide, the IC50 (HIV-1 BaL; read-out: Anti-viral activity, IC50, HIV strain BaL) is reported as 2.4 nM, the IC50 (HIV-1 HXB2; read-out: Anti-viral activity, IC50, HIV strain HXB2) is reported as 5.3 nM and the IC50 (HIV-1 89.6; HIV strain 89.6, read-out: Anti-viral activity, IC50) is reported as 29 nM.

For “(CCS10N17)3: covalent disulfide trimer of CCS10N17 (CCGGIEKKIEAIEKLLQLTVWGIKQLQARIL; also: disulfide-linked homotrimer)”, the “anti-viral activity against HIV-1 HXB2, in words” value (HIV-1 HXB2) was “much lower potencies”.

For “IKKEIEAIKKEQEAIKKKIEAIEKLLQLTVWGIKaLQARIL (Ac-IKKEIEAIKKEQEAIKKKIEAIEKLLQLTVWGIKALQARIL-NH2; not fully specified (residue 35); printed as IKKEIEAIKKEQEAIKKKIEAIEKLLQLTVWGIKaLQARIL) [IZN17A11]”, the “Tm (2M GdnHCl), midpoint” value [4] was 66.0 °C.

“Biotin-GGIKKEIEAIKKEQEAIKKKIEAIEKEIEAQQHLLQLTVWGIKQLQARIL-NH2 [Biotin-IZN23]” gave an IC50 (HIV-1 HXB2; HXB2) of 2.17 nM.

For “IKKEIEAIKKEQEAIKKKIEAIEKLLQLTVWGIKQLQAaIL (Ac-IKKEIEAIKKEQEAIKKKIEAIEKLLQLTVWGIKQLQAAIL-NH2; not fully specified (residue 38); printed as IKKEIEAIKKEQEAIKKKIEAIEKLLQLTVWGIKQLQAaIL) [IZN17A15]”, the “Tm (2M GdnHCl), midpoint” value [4] was 77.2 °C.

For “IEKKIEEIEKKIEEIEKKIEEIEKLLQLTVWGIKQLQARIL [EZN17, EZ scaffold fused to N17] [listing 2 of 2 here]”, the “D5 IgG binding in bio-5-Helix/D5 IgG interaction assay, in words” value [1] was “interact with D5 IgG”, the “D5 IgG binding in bio-IZN17/D5 IgG interaction assay, in words” value [2] was “strongly binds to D5 IgG; also recorded: interact with D5 IgG; also recorded: affinity comparable to IZN17” and the “helical content by circular dichroism” value [5] was “fully helical”.

In the case of “I: Ac-CCGGIKKKIEAIEKLLQLTVWGIKQLQARIL-NH2 / II: Ac-CCGGIKKKIEAIEKLLQLTVWGIKQLQARIL-NH2 / III: Ac-CCGGIKKKIEAIEKLLQLTVWGIKQLQARIL-NH2 (disulfide I:1-III:2, I:2-II:2, II:1-III:1; C-terminus assumed) [(CCI10N17)3]”, the “D5 IgG binding in bio-5-Helix/D5 IgG interaction assay, in words” value [1] is reported as “competes for binding of D5 IgG to Biotin-5-Helix”, the “D5 IgG binding in bio-IZN17/D5 IgG interaction assay, in words” value [2] is reported as “somewhat less effective than 112N7; also recorded: clearly inhibits” and the “fold less potent (IC50) than (CCIZN17)3” value (HIV-1 HXB2) is reported as “approximately 150 fold”. The IC50 (HIV-1 HXB2; HXB2) was 24 nM, the “fold reduction in anti-viral activity relative to IZN17” value (HIV-1 HXB2; HXB2) was “approximately 10 fold” and the “anti-viral activity against HIV-1 HXB2, in words” value (HIV-1 HXB2) was “less potent in anti-viral activity assays”. The “helical content by circular dichroism” value [5] was 85%, the “melting point (thermal denaturation)” value [5] was “about 60 °C” and the “melting point (thermal denaturation)” value ([5]; listed as (CC110N17)3) was 60 °C.

In the case of “ac-C(Acm)(thioE10N17)3: one ac-C(Acm)Ttds-CCE10N17 ligated via two thioether bonds to two acetyl-GGGE10N17 chains (peptide 1 {CH2CO}-C(Acm)[Ttds]CCIEEKIEEIEELLQLTVWGIKQLQARIL; peptide 2 Ac-GGGIEEKIEEIEELLQLTVWGIKQLQARIL; thioether I:N-I:3, I:N-I:4; numbers in words are those of the source; also: chain 2 present twice, each copy ligated via thioether to one of the two Cys of chain 1)”, the “anti-viral activity against HIV-1 HXB2, in words” value (HIV-1 HXB2) is reported as “much lower potencies” and the “melting temperature / midpoint of thermal denaturation” value (from here on “melting temperature / midpoint”) [4] is reported as “above 90 °C”.

With “IEKKIEAIEKKIEAIEKKIEAIEKLLQLTVWGIKQLQARIL [SZN17]” the IC50 (HIV-1 HXB2; read-out: IC50 in single-cell infectivity assay, against HIV BXB2 (so in the source), unit inferred) was 1.5 nM and the “melting temperature / midpoint” value [4] was over 90 °C.

For “IKKEIEAIKKEQEATKKKIEAIEKLLQLTVWGIKQLaARIL [IZN17A13]”, the “Tm (2M GdnHCl), midpoint” value [4] was 71.5 °C.

In the case of “Ac-IKKEIEAIKKEQEAIKKKIEAIEKLLQLTVWGIKQLQARIL-NH2 [IZN17, reference compound]”, the IC50 (HIV-1 BaL; BaL) is reported as 3.2 nM, the IC50 (HIV-1 HXB2; HXB2) is reported as 1.7 nM and the “Tm (2M GdnHCl), midpoint” value [4] is reported as 61.5 °C. For the same molecule, the “melting temperature / midpoint” value [4] was 61.5 °C, the “helical content by circular dichroism” value [5, 7] was “fully helical” and the “anti-viral activity against HIV isolate 89.6, in words” value (HIV-1 89.6) was “completely resistant towards IZN17”. The “Anti-viral activity, IC50” value (HIV-1 89.6; HIV strain 89.6) was “No”.

For “IKKEIEAIKKEQEAIKKKIEAIEKaLQLTVWGIKQLQARIL (Ac-IKKEIEAIKKEQEAIKKKIEAIEKALQLTVWGIKQLQARIL-NH2) [IZN17A1]”, the “Tm (2M GdnHCl), midpoint” value [4] was 51.7 °C.

For “Ac-LLQLTVWGIKQLQARILAIKKEIEAIKKEQEAIKKKIEAI-NH2 (C-terminus assumed) [N17IZ]”, the IC50 (HIV-1 HXB2; HXB2) was 800 nM.

For “CCGGIKKEIEAIKKEQEAIKKKIEAIEKLLQLTVWGIKALAAAIA [CCIZN17Ala4]”, the “anti-viral activity against HIV-1 HXB2, in words” value (HIV-1 HXB2) was “retain anti-viral activity”.

In the case of “(CCIZN11IZ)3: covalent disulfide trimer of CCIZN11IZ (CCGGIKKEIEAIKKEQEAIKKKIEAIEKLLQLTVWGIKQIKKEIEAI; also: disulfide-linked homotrimer)”, the “D5 IgG binding in bio-5-Helix/D5 IgG interaction assay, in words” value [1] is reported as “binds D5 IgG” and the IC50 (HIV-1 HXB2; read-out: IC50 against HIV-1 HXB2, single-cycle infectivity assay, HXB2) is reported as 0.3 nM.

For “(CCS17N17)3: covalent disulfide trimer of CCS17N17 (CCGGIEKKIEAIEKKIEAIEKLLQLTVWGIKQLQARIL; also: disulfide-linked homotrimer)”, the “melting temperature / midpoint” value [4] was “above 90 °C”.

B1: ac-C(Acm)(thioIZN17)3: one ac-C(Acm)Ttds-CCIZN17 chain ligated via two thioether bonds to two acetyl-GGGIZN17 chains (peptide)
peptide 1: CCCGGIKKEIEAIKKEQEAIKKKIEAIEKLLQLTVWGIKQLQARIL
peptide 2: GGGIKKEIEAIKKEQEAIKKKIEAIEKLLQLTVWGIKQLQARIL
For B1, the “anti-viral activity against HIV-1 HXB2, in words” value (HIV-1 HXB2) was “comparable antiviral activity to (CCIZN17)3”.
